ChEMBL document CHEMBL3817846, “Isomeric iodinated analogs of nimesulide: Synthesis, physicochemical characterization, cyclooxygenase-2 inhibitory activity, and transport across Caco-2 cells” (Bioorg Med Chem, 2016)

Key:
[1] = Stability in Balb/cCrSlc mouse plasma assessed as parent compound remaining up to 120 mins by HPLC analysis; format: ADME, cell-free; details: read-out: Stability
[2] = Acid dissociation constant, pKa of compound at 20 ug/ml at pH 5.6 to 6.8 by micro-scale spectrophotometric method; format: physicochemical
[3] = Apparent permeability from apical to basolateral side in human Caco2 cells at 1 uM after 1 to 2 hrs by LC-MS analysis; format: ADME, cell-based; details: Caco-2
[4] = Apparent permeability from apical to basolateral side in human Caco2 cells at 10 uM after 1 to 2 hrs by LC-MS analysis; format: ADME, cell-based; details: Caco-2
[5] = Efflux ratio of permeability from basolateral to apical side over apical to basolateral side in human Caco2 cells at 10 uM after 1 to 2 hrs by LC-MS analysis; format: ADME, cell-based; details: Caco-2
[6] = Efflux ratio of permeability from basolateral to apical side over apical to basolateral side in human Caco2 cells at 1 uM after 1 to 2 hrs by LC-MS analysis; format: ADME, cell-based; details: Caco-2
[7] = Apparent permeability from basolateral to apical side in human Caco2 cells at 1 uM after 1 to 2 hrs by LC-MS analysis; format: ADME, cell-based; details: Caco-2
[8] = Apparent permeability from basolateral to apical side in human Caco2 cells at 10 uM after 1 to 2 hrs by LC-MS analysis; format: ADME, cell-based; details: Caco-2
[9] = Octanol-water partition coefficient, log P of compound at pH 7.4 by reverse phase HPLC analysis; format: physicochemical
[10] = molecular target: T1, Prostaglandin G/H synthase 1 (Ovis aries, UniProt P05979); assay: Inhibition of heme catalyzed hydroperoxidase activity of ovine COX-1 using arachidonic acid as substrate preincubated for 5 mins followed by substrate addition measured after 5 mins by TMPD oxidation based colorimetric assay
T1 sequence (P05979 whole entry): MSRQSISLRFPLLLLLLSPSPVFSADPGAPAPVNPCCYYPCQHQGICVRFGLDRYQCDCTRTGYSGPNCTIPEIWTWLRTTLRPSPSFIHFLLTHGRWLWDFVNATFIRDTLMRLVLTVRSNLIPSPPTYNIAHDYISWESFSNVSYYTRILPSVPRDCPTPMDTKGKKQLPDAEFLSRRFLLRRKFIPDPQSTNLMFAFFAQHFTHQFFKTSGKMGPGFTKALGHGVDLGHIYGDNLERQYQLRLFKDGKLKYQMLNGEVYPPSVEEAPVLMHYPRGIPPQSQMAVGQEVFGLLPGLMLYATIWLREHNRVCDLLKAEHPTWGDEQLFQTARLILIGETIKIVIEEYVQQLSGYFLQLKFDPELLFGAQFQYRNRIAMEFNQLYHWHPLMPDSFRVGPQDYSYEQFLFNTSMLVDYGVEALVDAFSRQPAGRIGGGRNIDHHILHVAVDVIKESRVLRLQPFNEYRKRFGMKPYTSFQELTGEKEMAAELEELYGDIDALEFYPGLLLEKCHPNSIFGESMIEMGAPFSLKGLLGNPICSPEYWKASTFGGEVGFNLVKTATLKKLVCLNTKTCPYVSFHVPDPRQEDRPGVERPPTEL

[11] = molecular target: T2, Prostaglandin G/H synthase 2 (Ovis aries, UniProt P79208); assay: Inhibition of heme catalyzed hydroperoxidase activity of ovine COX-2 using arachidonic acid as substrate preincubated for 5 mins followed by substrate addition measured after 5 mins by TMPD oxidation based colorimetric assay
T2 sequence (P79208 whole entry): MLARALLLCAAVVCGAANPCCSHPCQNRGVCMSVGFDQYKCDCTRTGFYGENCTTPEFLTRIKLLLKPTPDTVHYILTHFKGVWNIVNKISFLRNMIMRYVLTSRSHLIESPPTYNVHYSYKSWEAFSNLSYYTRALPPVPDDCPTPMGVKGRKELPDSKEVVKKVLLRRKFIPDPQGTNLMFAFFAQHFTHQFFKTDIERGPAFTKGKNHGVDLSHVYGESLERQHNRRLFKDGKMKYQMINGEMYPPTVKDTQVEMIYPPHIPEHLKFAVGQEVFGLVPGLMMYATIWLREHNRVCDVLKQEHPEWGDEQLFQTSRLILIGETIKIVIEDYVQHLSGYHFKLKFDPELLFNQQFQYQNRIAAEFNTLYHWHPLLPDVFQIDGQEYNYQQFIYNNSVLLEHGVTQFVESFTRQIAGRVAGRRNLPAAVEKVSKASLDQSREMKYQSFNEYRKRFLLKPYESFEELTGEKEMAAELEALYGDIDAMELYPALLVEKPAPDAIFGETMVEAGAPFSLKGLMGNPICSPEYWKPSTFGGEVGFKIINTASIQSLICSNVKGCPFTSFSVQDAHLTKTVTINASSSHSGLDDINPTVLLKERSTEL

remaining at 2 h [1] | pKa [2] | Papp A→B at 1 µM [3] | Papp A→B at 10 µM [4] | efflux ratio at 10 µM [5] | efflux ratio at 1 µM [6] | Papp B→A at 1 µM [7] | Papp B→A at 10 µM [8] | logP [9] | IC50 [10] | IC50 [11] | Structure (SMILES)
98% | 6.57 |  |  |  |  |  |  |  |  |  | CS(=O)(=O)Nc1ccc([N+](=O)[O-])cc1Oc1ccccc1 [NIMESULIDE]
98.4% | 6.74 | 31.4 ×10⁻⁶ cm/s | 27 ×10⁻⁶ cm/s | 0.67 | 0.84 | 26.4 ×10⁻⁶ cm/s | 18 ×10⁻⁶ cm/s | 2.72 | > 100 µM | > 100 µM | CS(=O)(=O)Nc1ccc([N+](=O)[O-])cc1Oc1cccc(I)c1

Further lines, the compound ahead of its results:

Structure (SMILES) | remaining at 2 h [1] | pKa [2] | Papp A→B at 1 µM [3] | Papp A→B at 10 µM [4] | efflux ratio at 10 µM [5] | efflux ratio at 1 µM [6] | Papp B→A at 1 µM [7] | Papp B→A at 10 µM [8] | logP [9] | IC50 [10] | IC50 [11]
COc1cccc(Oc2cc([N+](=O)[O-])ccc2NS(C)(=O)=O)c1 | 99.3% | 6.87 |  |  |  |  |  |  |  |  | 
CS(=O)(=O)Nc1ccc([N+](=O)[O-])cc1Oc1ccc(I)cc1 | 97.5% | 6.89 | 40.5 ×10⁻⁶ cm/s | 17.1 ×10⁻⁶ cm/s | 0.78 | 0.45 | 18.3 ×10⁻⁶ cm/s | 13.4 ×10⁻⁶ cm/s | 2.77 | > 100 µM | 0.47 µM
CS(=O)(=O)Nc1ccc([N+](=O)[O-])cc1Oc1ccccc1I | 95% | 6.57 | 30.1 ×10⁻⁶ cm/s | 33.8 ×10⁻⁶ cm/s | 0.78 | 0.72 | 21.9 ×10⁻⁶ cm/s | 26.4 ×10⁻⁶ cm/s | 2.11 | > 100 µM | > 100 µM
COc1ccc(Oc2cc([N+](=O)[O-])ccc2NS(C)(=O)=O)cc1 | 98.5% | 7.01 |  |  |  |  |  |  |  |  | 
COc1ccccc1Oc1cc([N+](=O)[O-])ccc1NS(C)(=O)=O | 97.6% | 7.07 |  |  |  |  |  |  |  |  | 
